Reference: patent publication US20240279304A1, “DSG2 COMPOSITIONS AND METHODS” (Arvada Therapeutics, Inc., priority 2021, published 2024)

How the values were obtained:
[1] = tested on: human iPSC cardiomyocytes; test: CiPA multielectrode array (MEA) assay, sodium spike; type: cell-based; details: anti-DSG2 antibodies 0.5 μg/mL; lidocaine 10 μM; negative controls 0.5 g/mL as printed; 0 to 96 hours
Description: To determine the effect of anti-DSG2 antibodies in cardiomyocytes, the cardiac in vitro proarrhythmia (CiPA) assay was performed (Sager et al. Am Heart J 2014; 167:292-300; the contents of which are herein incorporated by reference in its entirety). CiPA is envisioned to consist of four components: (1) an evaluation of the effects of test agents on cardiac ion channel assays; (2) in silico modeling of the cardiac action potential based on the ion channel results to integrate the data with cardiac function; (3) experimental measurement of test agent effects in human ventricular myocytes to confirm the modeling result; and (4) scoring the results. […] The sodium spike quantified below is a measurement of the specific sodium channel current in the cardiomyocyte and is also described in Blinova K, et al. Cell Rep. […] The parameters evaluated include measuring a change in the spike in the component of electrical signal propagation (e.g. sodium spike) and cell index—a function of cell impedance and cell number. […]
Commercially available anti-DSG2 antibodies were tested in the cardiomyocyte CiPA assay. […] The voltage (μV) is measured at time intervals of 0, 1 hour, 12 hours, 24 hours, 48 hours, 72 hours, and 96 hours. […]

[2] = tested on: human iPSC-derived cardiomyocytes; test: CiPA multielectrode array (MEA) assay, cell index; type: cell-based
Description: To determine the effect of anti-DSG2 antibodies in cardiomyocytes, the cardiac in vitro proarrhythmia (CiPA) assay was performed (Sager et al. Am Heart J 2014; 167:292-300; the contents of which are herein incorporated by reference in its entirety). CiPA is envisioned to consist of four components: (1) an evaluation of the effects of test agents on cardiac ion channel assays; (2) in silico modeling of the cardiac action potential based on the ion channel results to integrate the data with cardiac function; (3) experimental measurement of test agent effects in human ventricular myocytes to confirm the modeling result; and (4) scoring the results. The multielectrode array (MEA) assay is a component of CiPA which uses human induced pluripotent stem cell (iPSC)-derived cardiomyocytes to evaluate two-dimensional excitation propagation by recording spontaneous ECG-like field potentials. The sodium spike quantified below is a measurement of the specific sodium channel current in the cardiomyocyte and is also described in Blinova K, et al. Cell Rep. 2018 Sep. 25; 24(13):3582-3592 (the contents of which are herein incorporated by reference in its entirety). CiPA is considered a clinically validated cardiomyocyte-based assay by the FDA and the EMA. […] The parameters evaluated include measuring a change in the spike in the component of electrical signal propagation (e.g. sodium spike) and cell index—a function of cell impedance and cell number. Changes in sodium spike may be indicative of arrhythmia and a change in cell index (CI) may be indicative of changes to cell connectivity.
Cell index is inversely related the cell layer's conductivity to electrical current. Increased conductivity across the cell layer, may indicate that there are more gaps in the cell layer, implying that the cells are less well-adhered to each other. Thus, increased conductivity across the cell layer, may result in lower cell index. […] The concentration of anti-DSG2 antibodies varied from 0.00005 μg/mL to 5 μg/mL. […] The concentration of lidocaine varied from 3 μM to 100 μM. […] The concentration of anti-DSG2 antibodies varied from 0.00005 μg/mL to 5 μg/mL.

anti-DSG2 antibody [3] = test: anti-DSG2 antibody MSD assay; inhibition of the antibody signal by the fusion polypeptide; antibody at 1000 ng/mL
anti-DSG2 antibody [4] = test: anti-DSG2 antibody MSD assay; inhibition of the antibody signal by the fusion polypeptide; antibody at 200 ng/mL

In the case of `CCN(CC)CC(=O)Nc1c(C)cccc1C` [Lidocaine, lidocaine], the “effect on cardiomyocyte sodium spike (in words)” value [1] is reported as “dampen the sodium spike”, the “Cell Index (+/- SEM)” value ([2]; 3 μM) is reported as 19.9 (2.84) and the “Cell Index (+/- SEM)” value ([2]; 10 μM) is reported as 20.2 (3.1). The “Cell Index (+/- SEM)” value ([2]; 30 μM) was 18.7 (2.0), the “Cell Index (+/- SEM)” value ([2]; 100 μM) was 11.0 (4.8) and the “effect on cell index (in words)” value ([2]; lidocaine 3 μM to 100 μM, antibodies 0.00005 μg/mL to 5 μg/mL) was “marked reduction in cell index and likely cell death”.

“recombinant human desmoglein-2 Fc chimera protein, CF (DSG2FP#1) (Fc fusion)” showed a % inhibition (anti-DSG2 antibody [3]) of 88.4% and a % inhibition (anti-DSG2 antibody [4]) of 63.8%.
